Results reported in patent publication US8865731B2, “Inhibitor of analgesic tolerance” (Kyowa Hakko Kirin Co., Ltd., priority 2008, dated 2014).

System: Male ddY mice
Assay: Suppressing activity on morphine analgesic tolerance (hot plate method, response latency)
Format: in vivo
Conditions: for ΔChange (Latency at each time point − Pre value) 0.5 h: day 7, 0.5 h; for ΔChange (Latency at each time point − Pre value) 1 h: day 7, 1 h; for ΔChange (Latency at each time point − Pre value) 2 h: day 7, 2 h
[1] = Table 4, Compound (IIA) 100 mg/kg p.o. repeatedly administered alone
[2] = Table 4, repeated combination group: Compound (IIA) 100 mg/kg p.o. 30 min before each morphine 6 mg/kg s.c., 7 days
[3] = Table 1, Compound (IIIB) 3 mg/kg p.o. repeatedly administered alone
[4] = Table 1, repeated combination group: Compound (IIIB) 3 mg/kg p.o. 30 min before each morphine 6 mg/kg s.c., 7 days
[5] = Table 2, Compound (IIIC) 1 mg/kg p.o. repeatedly administered alone
[6] = Table 2, repeated combination group: Compound (IIIC) 1 mg/kg p.o. 30 min before each morphine 6 mg/kg s.c., 7 days
[7] = Table 5, compound 30 mg/kg p.o. repeatedly administered alone
[8] = Table 5, repeated combination group: compound 30 mg/kg p.o. 30 min before each morphine 6 mg/kg s.c., 7 days
[9] = Test Example 6, compound 30 mg/kg p.o. 30 min before each morphine 6 mg/kg s.c., 7 days
[10] = Test Example 6, compound 30 mg/kg p.o. repeatedly administered alone
[11] = Table 4, Compound (VIA) 30 mg/kg p.o. repeatedly administered alone
[12] = Table 4, repeated combination group: Compound (VIA) 30 mg/kg p.o. 30 min before each morphine 6 mg/kg s.c., 7 days
[13] = Table 4, Compound (VII) 60 mg/kg p.o. repeatedly administered alone
[14] = Table 4, repeated combination group: Compound (VII) 60 mg/kg p.o. 30 min before each morphine 6 mg/kg s.c., 7 days

## CC(C)(O)CCN1CCN(c2cc3nc(-c4ccco4)nn3c(N)n2)CC1 [Compound (IIA)]
[1]
  ΔChange (Latency at each time point − Pre value) 0.5 h: 1.2 ± 1.5 s
  ΔChange (Latency at each time point − Pre value) 1 h: 1.7 ± 1.4 s
  ΔChange (Latency at each time point − Pre value) 2 h: 0.9 ± 1.1 s
[2]
  ΔChange (Latency at each time point − Pre value) 0.5 h: 12.8 ± 1.9 s
  ΔChange (Latency at each time point − Pre value) 1 h: 6.4 ± 1.7 s
  ΔChange (Latency at each time point − Pre value) 2 h: 2.4 ± 1.2 s
Test Example 5, Compound (IIA) 100 mg/kg p.o. 30 min before each morphine 6 mg/kg s.c., 7 days
  development of analgesic tolerance (response latency): the development of analgesic tolerance was prevented
Test Example 5, Compound (IIA) 100 mg/kg p.o. repeatedly administered alone
  effect on the response latency: the effect on the response latency was not observed

## Cc1ncc(C(=O)Nc2nc(-c3ccco3)c(C(=O)C3CCOCC3)s2)cn1 [Compound (IIIB)]
[3]
  ΔChange (Latency at each time point − Pre value) 0.5 h: 0.1 ± 0.5 s
  ΔChange (Latency at each time point − Pre value) 1 h: −0.1 ± 0.4 ^ sec
  ΔChange (Latency at each time point − Pre value) 2 h: 0.4 ± 1.2 s
[4]
  ΔChange (Latency at each time point − Pre value) 0.5 h: 18.2 ± 1.2 s
  ΔChange (Latency at each time point − Pre value) 1 h: 13.5 ± 0.8 s
  ΔChange (Latency at each time point − Pre value) 2 h: 4.8 ± 0.7 s
Test Example 3, Compound (IIIB) 3 mg/kg p.o. 30 min before each morphine 6 mg/kg s.c., 7 days
  development of analgesic tolerance (response latency): the development of analgesic tolerance was prevented
Test Example 3, Compound (IIIB) 3 mg/kg p.o. repeatedly administered alone
  effect on the response latency: the effect on the response latency was not observed

## Cc1ccc(C(=O)Nc2nc(-c3ccco3)c(C(=O)C3CCOCC3)s2)cn1 [Compound (IIIC)]
[5]
  ΔChange (Latency at each time point − Pre value) 0.5 h: −2.2 ± 1.3^ sec
  ΔChange (Latency at each time point − Pre value) 1 h: -1.0 ± 0.7 s
  ΔChange (Latency at each time point − Pre value) 2 h: -1.0 ± 0.9 s
[6]
  ΔChange (Latency at each time point − Pre value) 0.5 h: 16.1 ± 2.4 s
  ΔChange (Latency at each time point − Pre value) 1 h: 9.3 ± 1.6 s
  ΔChange (Latency at each time point − Pre value) 2 h: 1.9 ± 0.9 s
Test Example 3, Compound (IIIC) 1 mg/kg p.o. 30 min before each morphine 6 mg/kg s.c., 7 days
  development of analgesic tolerance (response latency): the development of analgesic tolerance was prevented
Test Example 3, Compound (IIIC) 1 mg/kg p.o. repeatedly administered alone
  effect on the response latency: the effect on the response latency was not observed

## COCCOc1ccc(N2CCN(CCn3ncc4c3nc(N)n3nc(-c5ccco5)nc43)CC2)cc1 [Compound (IVA)]
[7]
  ΔChange (Latency at each time point − Pre value) 0.5 h: 0.5 ± 0.6 s
  ΔChange (Latency at each time point − Pre value) 1 h: −0.4 ± 1.0 ^ sec
  ΔChange (Latency at each time point − Pre value) 2 h: -0.5 ± 1.4 s
[8]
  ΔChange (Latency at each time point − Pre value) 0.5 h: 14.9 ± 1.6 s
  ΔChange (Latency at each time point − Pre value) 1 h: 8.3 ± 0.4 s
  ΔChange (Latency at each time point − Pre value) 2 h: 0.7 ± 1.1 s
[9]
  development of analgesic tolerance (response latency): the development of analgesic tolerance was prevented
[10]
  effect on the response latency: the effect on the response latency was not observed

## CCCCc1nc(N)c2nc(-n3nccn3)n(C)c2n1 [Compound (VIA)]
[11]
  ΔChange (Latency at each time point − Pre value) 0.5 h: -0.8 ± 1.3 s
  ΔChange (Latency at each time point − Pre value) 1 h: 0.2 ± 2.1 s
  ΔChange (Latency at each time point − Pre value) 2 h: -0.2 ± 1.1 s
[12]
  ΔChange (Latency at each time point − Pre value) 0.5 h: 13.0 ± 2.4 s
  ΔChange (Latency at each time point − Pre value) 1 h: 7.6 ± 1.7 s
  ΔChange (Latency at each time point − Pre value) 2 h: 1.9 ± 1.3 s
Test Example 5, Compound (VIA) 30 mg/kg p.o. 30 min before each morphine 6 mg/kg s.c., 7 days
  development of analgesic tolerance (response latency): the development of analgesic tolerance was prevented
Test Example 5, Compound (VIA) 30 mg/kg p.o. repeatedly administered alone
  effect on the response latency: the effect on the response latency was not observed

## Cc1nc(-c2sc(NC(=O)C3CC3)nc2-c2ccccc2)no1 [Compound (VII)]
[13]
  ΔChange (Latency at each time point − Pre value) 0.5 h: -0.8 ± 1.0 s
  ΔChange (Latency at each time point − Pre value) 1 h: -0.7 ± 1.0 s
  ΔChange (Latency at each time point − Pre value) 2 h: 0.0 ± 0.6 s
[14]
  ΔChange (Latency at each time point − Pre value) 0.5 h: 12.8 ± 2.1 s
  ΔChange (Latency at each time point − Pre value) 1 h: 7.8 ± 1.3 s
  ΔChange (Latency at each time point − Pre value) 2 h: 1.8 ± 0.8 s
Test Example 5, Compound (VII) 60 mg/kg p.o. 30 min before each morphine 6 mg/kg s.c., 7 days
  development of analgesic tolerance (response latency): the development of analgesic tolerance was prevented
Test Example 5, Compound (VII) 60 mg/kg p.o. repeatedly administered alone
  effect on the response latency: the effect on the response latency was not observed

## Cc1cc(Cn2nnc3c(-c4ccco4)nc(N)nc32)ccc1N [Compound (VIII)]
[7]
  ΔChange (Latency at each time point − Pre value) 0.5 h: −0.5 ± 0.9 ^ sec
  ΔChange (Latency at each time point − Pre value) 1 h: 0.1 ± 0.9 s
  ΔChange (Latency at each time point − Pre value) 2 h: -1.1 ± 1.1 s
[8]
  ΔChange (Latency at each time point − Pre value) 0.5 h: 13.6 ± 1.6 s
  ΔChange (Latency at each time point − Pre value) 1 h: 7.8 ± 0.8 s
  ΔChange (Latency at each time point − Pre value) 2 h: 1.1 ± 0.8 s
[9]
  development of analgesic tolerance (response latency): the development of analgesic tolerance was prevented
[10]
  effect on the response latency: the effect on the response latency was not observed
